Experimental data reported in ChEMBL document CHEMBL4422618, “Translational impact of novel widely pharmacological characterized mofezolac-derived COX-1 inhibitors combined with bortezomib on human multiple myeloma cell lines viability” (Eur J Med Chem, 2019).
Calls of active or inactive are those of the source. The calls are words filed in the database; no cut-off is given here.

Tests used:
[1] = system: Platelet; assay: Antiplatelet activity in human platelet rich plasma assessed as inhibition of arachidonic acid-induced platelet aggregation preincubated for 2 mins followed by arachidonic acid addition by turbidimetric method; type: functional, cell-based
[2] = system: Plasma; assay: Anticoagulant activity in human platelet poor plasma assessed as activated partial thromboplastin time at 100 uM incubated for 15 mins at room temperature and subsequent incubation for 2 mins at 37 degreeC followed by cephalin addition and measured after 2 mins for every secs in presence of CaCl2; type: functional
[3] = system: Plasma; assay: Anticoagulant activity in human platelet poor plasma assessed as prothrombin time at 100 uM incubated for 15 mins at room temperature and subsequent incubation for 2 mins at 37 degreeC followed by PBS addition and measured after 3 mins for every secs in presence of calcium thromboplastin; type: functional
[4] = Hemolytic activity in erythrocytes (unknown origin) at 100 uM after 3 hrs by spectrophotometric analysis; type: ADME, cell-based, Erythrocyte; settings: read-out: Activity
[5] = Mutagenicity in Salmonella typhimurium TA97 at 500 uM by Ames test; type: toxicity; settings: salmonella enterica subsp. enterica serovar typhimurium
[6] = Mutagenicity in Salmonella typhimurium TA98 at 500 uM by Ames test; type: toxicity; settings: salmonella enterica subsp. enterica serovar typhimurium
[7] = Mutagenicity in Salmonella typhimurium TA100 at 500 uM by Ames test; type: toxicity; settings: salmonella enterica subsp. enterica serovar typhimurium
[8] = Mutagenicity in Salmonella typhimurium TA102 at 500 uM by Ames test; type: toxicity; settings: salmonella enterica subsp. enterica serovar typhimurium
[9] = Genotoxicity in Escherichia coli PQ35 at 500 uM after overnight incubation by SOS chromotest; type: toxicity
[10] = Genotoxicity in Escherichia coli PQ37 at 500 uM after overnight incubation by SOS chromotest; type: toxicity
[11] = system: NCI-H929; assay: Cytotoxicity against human NCI-H929 cells assessed as reduction in cell viability at […] after 48 hrs by CCK8 assay; type: functional, cell-based
[12] = system: RPMI-8226; assay: Cytotoxicity against human RPMI8226 cells assessed as reduction in cell viability at 42 nM after 48 hrs by CCK8 assay relative to control; type: functional
[13] = system: NCI-H929; assay: Potentiation of bortezomib-induced cytotoxicity against human NCI-H929 cells assessed as reduction in cell viability at […] after 48 hrs in presence of bortezomib by CCK8 assay; type: functional, cell-based
[14] = system: RPMI-8226; assay: Potentiation of bortezomib-induced cytotoxicity against human RPMI8226 cells assessed as reduction in cell viability at […] after 48 hrs in presence of bortezomib by CCK8 assay; type: functional
[15] = system: NCI-H929; assay: Cell cycle arrest in human NCI-H929 cells assessed as accumulation at G0/G1 phase at […] in presence of bortezomib after 48 hrs by propidium iodide/RNase staining based flow cytometric method relative to bortezomib alone; type: functional
[16] = system: NCI-H929; assay: Cell cycle arrest in human NCI-H929 cells assessed as accumulation at S phase at […] in presence of bortezomib after 48 hrs by propidium iodide/RNase staining based flow cytometric method relative to bortezomib alone; type: functional
[17] = system: RPMI-8226; assay: Cell cycle arrest in human RPMI8226 cells assessed as accumulation at G0/G1 phase at […] after 48 hrs by propidium iodide/RNase staining based flow cytometric method; type: functional
[18] = system: RPMI-8226; assay: Cell cycle arrest in human RPMI8226 cells assessed as accumulation at S phase at […] after 48 hrs by propidium iodide/RNase staining based flow cytometric method; type: functional
[19] = system: NCI-H929; assay: Induction of apoptosis in human NCI-H929 cells assessed as early apoptotic cells at […] after 48 hrs by Annexin-V/propidium iodide staining based flow cytometric method (reference value: 17.1%); type: functional
[20] = system: NCI-H929; assay: Induction of apoptosis in human NCI-H929 cells assessed as late apoptotic cells at […] after 48 hrs by Annexin-V/propidium iodide staining based flow cytometric method (reference value: 0.23%); type: functional
[21] = system: NCI-H929; assay: Induction of apoptosis in human NCI-H929 cells assessed as necrotic cells at […] after 48 hrs by Annexin-V/propidium iodide staining based flow cytometric method (reference value: 0.0034%); type: functional
[22] = system: NCI-H929; assay: Induction of apoptosis in human NCI-H929 cells assessed as viable cells at […] after 48 hrs by Annexin-V/propidium iodide staining based flow cytometric method (reference value: 82.6%); type: functional; settings: NCI-H929, 48 h, read-out: Activity
[23] = system: NCI-H929; assay: Induction of apoptosis in human NCI-H929 cells assessed as early apoptotic cells at […] after 48 hrs in presence of bortezomib by Annexin-V/propidium iodide staining based flow cytometric method (reference value: 17.1%); type: functional
[24] = system: NCI-H929; assay: Induction of apoptosis in human NCI-H929 cells assessed as late apoptotic cells at […] after 48 hrs in presence of bortezomib by Annexin-V/propidium iodide staining based flow cytometric method (reference value: 0.23%); type: functional
[25] = system: NCI-H929; assay: Induction of apoptosis in human NCI-H929 cells assessed as necrotic cells at […] after 48 hrs in presence of bortezomib by Annexin-V/propidium iodide staining based flow cytometric method (reference value: 0.0034%); type: functional
[26] = system: NCI-H929; assay: Induction of apoptosis in human NCI-H929 cells assessed as viable cells at […] after 48 hrs in presence of bortezomib by Annexin-V/propidium iodide staining based flow cytometric method (reference value: 82.6%); type: functional; settings: NCI-H929, 48 h, read-out: Activity
[27] = system: RPMI-8226; assay: Induction of apoptosis in human RPMI8226 cells assessed as early apoptotic cells at […] after 48 hrs in presence of bortezomib by Annexin-V/propidium iodide staining based flow cytometric method (reference value: 1.05%); type: functional
[28] = system: RPMI-8226; assay: Induction of apoptosis in human RPMI8226 cells assessed as late apoptotic cells at […] after 48 hrs in presence of bortezomib by Annexin-V/propidium iodide staining based flow cytometric method (reference value: 0.21%); type: functional
[29] = system: RPMI-8226; assay: Induction of apoptosis in human RPMI8226 cells assessed as necrotic cells at […] after 48 hrs in presence of bortezomib by Annexin-V/propidium iodide staining based flow cytometric method (reference value: 0.090%); type: functional
[30] = system: RPMI-8226; assay: Induction of apoptosis in human RPMI8226 cells assessed as viable cells at […] after 48 hrs in presence of bortezomib by Annexin-V/propidium iodide staining based flow cytometric method (reference value: 98.7%); type: functional; settings: RPMI-8226, 48 h, read-out: Activity
[31] = system: RPMI-8226; assay: Cell cycle arrest in human RPMI8226 cells assessed as accumulation at G0/G1 phase at […] in presence of bortezomib after 48 hrs by propidium iodide/RNase staining based flow cytometric method relative to bortezomib; type: functional
[32] = system: RPMI-8226; assay: Cell cycle arrest in human RPMI8226 cells assessed as accumulation at S phase at […] in presence of bortezomib after 48 hrs by propidium iodide/RNase staining based flow cytometric method relative to bortezomib; type: functional
[33] = system: RPMI-8226; assay: Cell cycle arrest in human RPMI8226 cells assessed as reduction in accumulation at G2/M phase at […] in presence of bortezomib after 48 hrs by propidium iodide/RNase staining based flow cytometric method relative to bortezomib; type: functional

## COc1ccc(-c2noc(CC(=O)O)c2-c2ccc(OC)cc2)cc1 [MOFEZOLAC]
[1]
  IC50: 450 nM
[2]
  APTT: 50.8 s
[3]
  PT: 14.2 s
[4]
  hemolysis at 3 h, 100 µM: 0%
[5]
  Activity: Non-Toxic
[6]
  Activity: Non-Toxic
[7]
  Activity: Non-Toxic
[8]
  Activity: Non-Toxic
[9]
  Activity: Non-Toxic
[10]
  Activity: Non-Toxic
[11]
  Activity: inactive
[12]
  Activity: 1%
[13]
  Activity: inactive
[14]
  Activity: 56%
[15]
  Activity: 15%
[16]
  Activity: 15%
[17]
  Activity: inactive
[18]
  Activity: inactive
[19]
  Activity: 18.7%
[20]
  Activity: 0.13%
[21]
  Activity: 0%
[22]
  viability at […]: 81.1%
[23]
  Activity: 64.3%
[24]
  Activity: 0.24%
[25]
  Activity: 0%
[26]
  viability at […]: 35.4%
[27]
  Activity: 7.86%
[28]
  Activity: 0.31%
[29]
  Activity: 0.006%
[30]
  viability at […]: 91.8%
[31]
  Activity: Active
[32]
  Activity: Active
[33]
  Activity: Active
